Assay results reported in US11660293B2, “Substituted 2-azabicyclo[3.1.1]heptane and 2-azabicyclo[3.2.1]octane derivatives as orexin receptor antagonists” (Chronos Therapeutics Limited, priority 2017, dated 2023).

Columns and labels:
[1] = biological target: human Orexin type 2 receptors (Homo sapiens (Human), UniProt O43614); assay: Intracellular calcium measurement (FLIPR), antagonism of Orexin-A at EC80 in CHO-hOX2 cells
[2] = biological target: human Orexin type 1 receptors (Homo sapiens (Human), UniProt O43613); assay: Intracellular calcium measurement (FLIPR), antagonism of Orexin-A at EC80 in CHO-hOX1 cells
human Orexin type 1 receptors, sequence (O43613 whole entry): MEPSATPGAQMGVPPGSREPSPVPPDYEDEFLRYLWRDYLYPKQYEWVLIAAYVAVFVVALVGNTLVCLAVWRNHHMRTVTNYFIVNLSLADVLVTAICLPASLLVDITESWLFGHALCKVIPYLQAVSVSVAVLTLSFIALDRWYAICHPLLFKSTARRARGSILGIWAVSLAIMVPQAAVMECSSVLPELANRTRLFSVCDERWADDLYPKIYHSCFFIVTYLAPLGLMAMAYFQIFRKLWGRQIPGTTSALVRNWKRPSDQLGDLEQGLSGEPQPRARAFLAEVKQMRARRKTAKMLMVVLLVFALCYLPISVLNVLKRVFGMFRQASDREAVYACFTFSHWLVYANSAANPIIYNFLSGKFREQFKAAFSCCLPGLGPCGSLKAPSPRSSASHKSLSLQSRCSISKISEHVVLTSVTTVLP

human Orexin type 2 receptors, sequence (O43614 whole entry): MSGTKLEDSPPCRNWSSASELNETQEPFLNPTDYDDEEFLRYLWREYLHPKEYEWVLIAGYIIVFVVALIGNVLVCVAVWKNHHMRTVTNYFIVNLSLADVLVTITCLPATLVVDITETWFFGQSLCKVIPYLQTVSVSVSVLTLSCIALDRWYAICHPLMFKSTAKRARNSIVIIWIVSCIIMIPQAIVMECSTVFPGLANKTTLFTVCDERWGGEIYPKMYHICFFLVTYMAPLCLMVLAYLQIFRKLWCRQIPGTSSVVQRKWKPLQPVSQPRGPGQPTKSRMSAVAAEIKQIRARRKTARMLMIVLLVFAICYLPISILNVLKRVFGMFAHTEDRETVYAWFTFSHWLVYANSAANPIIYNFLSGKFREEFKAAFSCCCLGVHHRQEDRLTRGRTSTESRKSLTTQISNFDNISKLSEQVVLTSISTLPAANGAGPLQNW

Row | Compound | Ki [1] [nM] | Ki [2] [nM]
1 | Cc1ccc(-c2ncccn2)c(C(=O)N2C3CC(C3)C(C)C2COc2ccc(F)cn2)n1 (mixture of isomers) [Example 78, CIS/TRANS 3-{[(5-fluoropyridin-2-yl)oxy]methyl}-4-methyl-2-[6-methyl-3-(pyrimidin-2-yl)pyridine-2-carbonyl]-2-azabicyclo[3.1.1]heptane] | 234 | 35.5
2 | Cc1ccc(-n2nccn2)c(C(=O)N2C(COc3ccc(F)cn3)CC3CC2C3)c1 (single isomer, unassigned) [Example 29, (3S or 3R) 3-{[(5-fluoropyridin-2-yl)oxy]methyl}-2-{[5-methyl-2-(2H-1,2,3-triazol-2-yl)phenyl]carbonyl}-2-azabicyclo[3.1.1]heptane] | 617 | 46.8
3 | Cc1nc(C(=O)N2C(COc3ccc(F)cc3)CC3CC2C3)c(-c2ccccc2)s1 (single isomer, unassigned) [Example 3, (3S or 3R) 3-[(4-fluorophenoxy)methyl]-2-(2-methyl-5-phenyl-1,3-thiazole-4-carbonyl)-2-azabicyclo[3.1.1]heptane] | 81.3 | 2.34
4 | Cc1ccc(-c2ncccn2)c(C(=O)N2C3CC(C3)[C@@H](C)C2COc2ccc(F)cn2)c1 (single isomer, unassigned) [Example 75, (3S,4R or 3R,4S) 3-{[(5-fluoropyridin-2-yl)oxy]methyl}-4-methyl-2-[5-methyl-2-(pyrimidin-2-yl)benzoyl]-2-azabicyclo[3.1.1]heptane] | 105 | 10.5
5 | Cc1nc(C(=O)N2C3CC(C3)[C@H](C)[C@@H]2COc2ccc(F)cc2)c(-c2ccccc2)s1 (single isomer, unassigned) [Example 68, (3S,4R or 3R,4S) 3-(4-fluorophenoxymethyl)-4-methyl-2-(2-methyl-5-phenyl-1,3-thiazole-4-carbonyl)-2-azabicyclo[3.1.1]heptane] | 138 | 0.741
6 | Cc1ccc(-c2ncccn2)c(C(=O)N2C3CC(C3)[C@@H](C)C2COc2ccc(F)cn2)c1 (some centres unmarked) [Example 74] | 589 | 28.8
7 | Cc1ccc(-c2nccs2)c(C(=O)N2C(COc3ccc(F)cn3)CC3CC2C3)c1 (single isomer, unassigned) [Example 26, (3S or 3R) 3-{[(5-fluoropyridin-2-yl)oxy]methyl}-2-{[5-methyl-2-(1,3-thiazol-2-yl)phenyl]carbonyl}-2-azabicyclo[3.1.1]heptane] | 182 | 18.2

The next lines start with the values.

Row | Ki [1] [nM] | Ki [2] [nM] | Compound
8 | 170 | 7.76 | Cc1ccc(-c2ncccn2)c(C(=O)N2C(COc3ccc(F)cc3)CC3CC2C3)n1 (racemic) [Example 13]
9 | 977 | 91.2 | Cc1ccc(-c2ncccn2)c(C(=O)N2C(COc3ccc(Cl)cc3)CC3CC2C3)c1 (centres unmarked) [Example 19]
10 | 355 | 15.1 | Cc1ccc(-c2ncccn2)c(C(=O)N2C(COc3ccc(F)cc3)CC3CC2C3)c1 (single isomer, unassigned) [Example 17, (3S or 3R) 3-(4-fluorophenoxymethyl)-2-{[5-methyl-2-(pyrimidin-2-yl)phenyl]carbonyl}-2-azabicyclo[3.1.1]heptane]
11 | 537 | 28.8 | Cc1ccc(-c2ncccn2)c(C(=O)N2C(COc3ccc(F)cc3)CC3CC2C3)c1 (racemic) [Example 16]
12 | 2450 | 13.5 | Cc1ccc(-c2ncccn2)c(C(=O)N2C3CC(C3)[C@H](C)[C@H]2COc2ccc(F)cc2)c1 (single isomer, unassigned) [Example 70, (3S,4S or 3R,4R) 3-(4-fluorophenoxymethyl)-4-methyl-2-[5-methyl-2-(pyrimidin-2-yl)benzoyl]-2-azabicyclo[3.1.1]heptane]
13 | 224 | 22.4 | Cc1ccc(-c2ncccn2)c(C(=O)N2C(CCOc3ccc(F)cc3)CC3CC2C3)c1 (racemic) [Example 41]
